The numbers were not newly measured in patent US4127523A, “Novel undecapeptides, intermediates therefor, and compositions and methods employing said undecapeptides” (priority 1977, dated 1978), which cites them from elsewhere.

The conditions of data set [1]: injected directly into the brain of the rat; Belluzzi et al.
Data set [2] deals with partially purified brain opiate receptor sites. As to conditions: literature, Bradbury et al.
The conditions of data set [3]: literature.

Consider “H-Tyr-Gly-Gly-Phe-Met-OH [methionine enkephalin]”, for which the analgesic activity result in data set [1] is on record as “only weak analgesic agent of short duration”. Moreover, in data set [2], the “binding to partially purified brain opiate receptor sites” value is listed as “binds stereo-specifically”. For the same substance, in data set [3], the “activity in bioassays for opiate activity” value is listed as “very active”.
